From US12448377B2, “Heterocyclic compound” (Takeda Pharmaceutical Company Limited, priority 2019, dated 2025)

Biological target: T1, human orexin type 2 receptor (Homo sapiens, UniProt O43614)
T1 construct: expressed in transfected cells
T1 sequence (O43614 1-444): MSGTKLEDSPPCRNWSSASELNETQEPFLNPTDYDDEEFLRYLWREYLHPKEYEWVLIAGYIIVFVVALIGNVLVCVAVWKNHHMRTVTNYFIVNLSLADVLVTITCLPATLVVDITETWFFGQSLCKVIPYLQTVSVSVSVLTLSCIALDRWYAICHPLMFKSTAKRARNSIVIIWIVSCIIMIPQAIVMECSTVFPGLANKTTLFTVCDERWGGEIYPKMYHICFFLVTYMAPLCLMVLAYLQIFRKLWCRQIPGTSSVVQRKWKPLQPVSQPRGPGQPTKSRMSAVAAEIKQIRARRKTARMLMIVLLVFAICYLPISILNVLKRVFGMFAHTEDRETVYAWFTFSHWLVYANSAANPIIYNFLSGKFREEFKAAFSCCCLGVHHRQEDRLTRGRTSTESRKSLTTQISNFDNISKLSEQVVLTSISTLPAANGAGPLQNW
Assay: Measurement of orexin type 2 receptor agonist activity (calcium fluorescence, CHO cells forcibly expressing human OX2 receptor)
Assay type: cell-based
Conditions: compound at 3 μM, DMSO = 0%, orexin A (human) 10 nM = 100%
Source text: To obtain a cell clone stably expressing human orexin type 2 receptor, human orexin type 2 receptor cDNA was inserted into pcDNA3.1(+) plasmid vector (Invitrogen), and a plasmid DNA for expression of human orexin type 2 receptor (pcDNA3.1(+)/hOX2R) was cloned. The plasmid DNA was introduced into CHO-K1 cell by an electroporation method, and human orexin type 2 receptor-expressing clonal cells were obtained by limiting dilution method using G418 drug resistance as a selection marker.
CHO cells forcibly expressing human OX2 receptor were seeded in each well of 384 well black transparent bottom plate (BD Falcon) at 10,000 cells/well, and cultured for one day in a 5% CO2 incubator at 37° C. After removal of the medium in the cell plate, assay buffer A containing a calcium indicator (HBSS (Thermo Fisher Scientific), 20 mM HEPES (Thermo Fisher Scientific), 0.1% BSA (Sigma-Aldrich), 2.5 μg/mL Fluo-4 AM (DOJINDO Chemical), 0.08% Pluronic F127 (DOJINDO Chemical), 1.25 mM probenecid (DOJINDO Chemical)) was added thereto at 30 μL/well. The plate was stood for 30 min in a 5% CO2 incubator at 37° C., and further stood at room temperature for 30 min. A test compound prepared by diluting with assay buffer B (HBSS, 20 mM HEPES, 0.1% BSA) was added thereto at 10 μL/well, and the fluorescence value was measured by FDSSμCELL (Hamamatsu Photonics K.K.) every one sec for 1 min, and thereafter every two sec for 1 min 40 sec. The activity (%) of the test compound was calculated assuming that variation in the fluorescence value when DMSO was added instead of the test compound was 0%, and variation in the fluorescence value when orexin A (human) (PEPTIDE INSTITUTE, INC.) was added at the final concentration of 10 nM was 100%.

| Compound | OX2R agonist activity (3 μM, %) |
| --- | --- |
| Cc1ccc2n(c1=O)C(COC1CCC(C(F)F)CC1)C(NS(C)(=O)=O)CC2 (racemic) [Example 55, N-[(3SR,4RS)-4-({[4-(difluoromethyl)cyclohexyl]oxy}methyl)-7-methyl-6-oxo-1,3,4,6-tetrahydro-2H-quinolizin-3-yl]methanesulfonamide] | 88% |
| CCC(O)C1CCC(OCC2C(NS(C)(=O)=O)CCc3ccc(C)c(=O)n32)CC1 (racemic) [Example 58, N-[(3SR,4RS)-4-({[4-(1-hydroxypropyl)cyclohexyl]oxy}methyl)-7-methyl-6-oxo-1,3,4,6-tetrahydro-2H-quinolizin-3-yl]methanesulfonamide] | 95% |
| Cc1ccc2n(c1=O)C(COC1CCC(CC(C)C)CC1)C(NS(C)(=O)=O)CC2 (racemic) [Example 88, rac-N-[(3S,4R)-7-methyl-4-({[(1a,4S)-4-(2-methylpropyl)cyclohexyl]oxy}methyl)-6-oxo-1,3,4,6-tetrahydro-2H-quinolizin-3-yl]methanesulfonamide] | 95% |
| CCS(=O)(=O)NC1CCc2ccc(C)c(=O)n2C1COC1CCC(c2ccccc2)CC1 (racemic) [Example 15, rac-N-[(3S,4R)-7-methyl-6-oxo-4-({[(1s,4S)-4-phenylcyclohexyl]oxy}methyl)-1,3,4,6-tetrahydro-2H-quinolizin-3-yl]ethanesulfonamide] | 96% |
| Cc1cccc(C2CCC(OCC3C(NS(C)(=O)=O)CCc4ccc(C)c(=O)n43)CC2)c1 (racemic) [Example 21, rac-N-[(3S,4R)-7-methyl-4-({[(1s,4S)-4-(3-methylphenyl)cyclohexyl]oxy}methyl)-6-oxo-1,3,4,6-tetrahydro-2H-quinolizin-3-yl]methanesulfonamide] | 92% |
| CCS(=O)(=O)NC1CCc2ccc(C)c(=O)n2C1COC1CCC(c2ccc(C)cc2)CC1 (racemic) [Example 34, rac-N-[(3S,4R)-7-methyl-4-({[(1s,4S)-4-(4-methylphenyl)cyclohexyl]oxy}methyl)-6-oxo-1,3,4,6-tetrahydro-2H-quinolizin-3-yl]ethanesulfonamide] | 78% |
| Cc1ccc2n(c1=O)C(COC1CCC(c3ccccc3)CC1)C(NS(=O)(=O)N(C)C)CC2 (racemic) [Example 29, rac-N,N-dimethyl-N′-[(3S,4R)-7-methyl-6-oxo-4-({[(1s,4S)-4-phenylcyclohexyl]oxy}methyl)-1,3,4,6-tetrahydro-2H-quinolizin-3-yl]sulfuric diamide] | 83% |
| Cc1ccc2n(c1=O)C(COC1CCC(C(C)(C)C)CC1)C(NS(=O)(=O)N(C)C)CC2 (racemic) [Example 30, rac-N′-[(3S,4R)-4-({[(1s,4S)-4-tert-butylcyclohexyl]oxy}methyl)-7-methyl-6-oxo-1,3,4,6-tetrahydro-2H-quinolizin-3-yl]-N,N-dimethylsulfuric diamide] | 94% |
| CCCCCC1CCC(OCC2C(NS(=O)(=O)C3CC3)CCc3ccc(C)c(=O)n32)CC1 (racemic) [Example 76, rac-N-[(3S,4R)-7-methyl-6-oxo-4-({[(1r,4S)-4-pentylcyclohexyl]oxy}methyl)-1,3,4,6-tetrahydro-2H-quinolizin-3-yl]cyclopropanesulfonamide] | 93% |
| CCCCC1CCC(OCC2C(NS(C)(=O)=O)CCc3ccc(C)c(=O)n32)CC1 (racemic) [Example 80, rac-N-[(3S,4R)-4-({[(1r,4S)-4-butylcyclohexyl]oxy}methyl)-7-methyl-6-oxo-1,3,4,6-tetrahydro-2H-quinolizin-3-yl]methanesulfonamide] | 99% |
| Cc1ccc2n(c1=O)C(COC1CCC(C)CC1)C(NS(C)(=O)=O)CC2 [Example 5, rel-N-[(3S,4R)-7-methyl-4-({[(1r,4R)-4-methylcyclohexyl]oxy}methyl)-6-oxo-1,3,4,6-tetrahydro-2H-quinolizin-3-yl]methanesulfonamide] | 112% |
| Cc1ccc2n(c1=O)C(COC1CCC(C(C)(C)C)CC1)C(NS(C)(=O)=O)CC2 (racemic) [Example 17, rac-N-[(3S,4R)-4-({[(1s,4S)-4-tert-butylcyclohexyl]oxy}methyl)-7-methyl-6-oxo-1,3,4,6-tetrahydro-2H-quinolizin-3-yl]methanesulfonamide] | 86% |
| C#CC1CCC(OCC2C(NS(C)(=O)=O)CCc3ccc(C)c(=O)n32)CC1 (racemic) [Example 108, rac-N-[(3S,4R)-4-({[(1s,4S)-4-ethynylcyclohexyl]oxy}methyl)-7-methyl-6-oxo-1,3,4,6-tetrahydro-2H-quinolizin-3-yl]methanesulfonamide] | 101% |
| Cc1ccc2n(c1=O)C(COC1CCC(C(C)C)CC1)C(NS(=O)(=O)N(C)C)CC2 (racemic) [Example 28, rac-N,N-dimethyl-N′-[(3S,4R)-7-methyl-6-oxo-4-({[(1s,4S)-4-(propan-2-yl)cyclohexyl]oxy}methyl)-1,3,4,6-tetrahydro-2H-quinolizin-3-yl]sulfuric diamide] | 92% |
| Cc1cccc(C2CCC(OCC3C(NS(=O)(=O)C4CC4)CCc4ccc(C)c(=O)n43)CC2)c1 (racemic) [Example 25, rac-N-[(3S,4R)-7-methyl-4-({[(1s,4S)-4-(3-methylphenyl)cyclohexyl]oxy}methyl)-6-oxo-1,3,4,6-tetrahydro-2H-quinolizin-3-yl]cyclopropanesulfonamide] | 92% |
| Cc1ccc(C2CCC(OCC3C(NS(C)(=O)=O)CCc4ccc(C)c(=O)n43)CC2)cc1 (racemic) [Example 33, rac-N-[(3S,4R)-7-methyl-4-({[(1s,4S)-4-(4-methylphenyl)cyclohexyl]oxy}methyl)-6-oxo-1,3,4,6-tetrahydro-2H-quinolizin-3-yl]methanesulfonamide] | 78% |
| COC(C)C1CCC(OCC2C(NS(C)(=O)=O)CCc3ccc(C)c(=O)n32)CC1 (racemic) [Example 56, N-[(3SR,4RS)-4-({[(1s,4S)-4-(1-methoxyethyl)cyclohexyl]oxy}methyl)-7-methyl-6-oxo-1,3,4,6-tetrahydro-2H-quinolizin-3-yl]methanesulfonamide] | 84% |
| CC1CCC(OCC2C(NS(C)(=O)=O)CCc3ccc(C4CC4)c(=O)n32)CC1 [Example 105, rel-N-[(3S,4R)-7-cyclopropyl-4-({[(1s,4S)-4-methylcyclohexyl]oxy)methyl)-6-oxo-1,3,4,6-tetrahydro-2H-quinolizin-3-yl]methanesulfonamide] | 84% |
| Cc1ccc2n(c1=O)C(COC1CCC(COC(C)C)CC1)C(NS(C)(=O)=O)CC2 (racemic) [Example 92, rac-N-[(3S,4R)-7-methyl-6-oxo-4-({[(1s,4S)-4-([(propan-2-yl)oxy]methyl}cyclohexyl]oxy}methyl)-1,3,4,6-tetrahydro-2H-quinolizin-3-yl]methanesulfonamide] | 90% |
| CCS(=O)(=O)NC1CCc2ccc(C)c(=O)n2C1COC1CCC(c2ccccc2C)CC1 (racemic) [Example 23, rac-N-[(3S,4R)-7-methyl-4-({[(1s,4S)-4-(2-methylphenyl)cyclohexyl]oxy}methyl)-6-oxo-1,3,4,6-tetrahydro-2H-quinolizin-3-yl]ethanesulfonamide] | 96% |
| Cc1ccc2n(c1=O)C(COC1CCC(C)CC1)C(NS(=O)(=O)C1CC1)CC2 (racemic) [Example 8, rac-N-[(3S,4R)-7-methyl-4-({[(1s,4S)-4-methylcyclohexyl]oxy}methyl)-6-oxo-1,3,4,6-tetrahydro-2H-quinolizin-3-yl]cyclopropanesulfonamide] | 80% |
| COCCC1CCC(OCC2C(NS(C)(=O)=O)CCc3ccc(C)c(=O)n32)CC1 (racemic) [Example 83, rac-N-[(3S,4R)-4-({[(1s,4S)-4-(2-methoxyethyl)cyclohexyl]oxy}methyl)-7-methyl-6-oxo-1,3,4,6-tetrahydro-2H-quinolizin-3-yl]methanesulfonamide] | 91% |
| Cc1ccc2n(c1=O)C(COC1CCC(c3ccccc3)CC1)C(NS(=O)(=O)C1CC1)CC2 (racemic) [Example 16, rac-N-[(3S,4R)-7-methyl-6-oxo-4-({[(1s,4S)-4-phenylcyclohexyl]oxy}methyl)-1,3,4,6-tetrahydro-2H-quinolizin-3-yl]cyclopropanesulfonamide] | 91% |
